Assay results from patent US12594249B2 (ThermoLife International, LLC, priority 2023, dated 2026).
Converted amounts (≈) assume the structure as drawn.

Legend:
[1] = system: exercise capacity and recovery; test: case report: exercise performance and recovery of a subject who regularly trains (treadmill, arm curls test, soreness); type: in vivo, human; details: for arm curls test: maximum number of bicep curl repetitions in 30 seconds: 40 lb dumbbell; for arm curls test: maximum number of bicep curl repetitions in 30 seconds / time to exhaustion on the treadmill: 1 gram doses the day/night before and 1 hour before training; for time to recovery (measured by muscle soreness and discomfort): after training; for time to exhaustion on the treadmill: Ifit treadmill, 0 elevation, 5 miles per hour
[2] = solubility of 2 g in 200 ml saturated citric acid solution (pH=3), filtration, visual; details: for appearance of liquid that passed through the filter: 2 grams in 200 ml saturated citric acid solution
Source text: The resulting acidic solution was then passed out by a filter. […]

[3] = standard conditions; cited from earlier work
[4] = in vivo; cited from earlier work
[5] = Lu et al. 2020, cited from earlier work
[6] = dissolution of 1 g powder in 100 ml water, visual, with and without stirring, centrifugation and filtration; details: for appearance of filtrate / solid left on the filter paper: centrifuged at 1000 rpm for 10 seconds, filtered; for visible dissolution in water without stirring: not stirred, one minute (phenoxide), 10 minutes (curcumin); for solubility in water (visual): FIG. 6 (0.5 g in 50 ml), FIGS. 7 and 8 (1 g in 100 ml)
[7] = system: chronic knee and shoulder pain; test: case report: oral ingestion by a person with chronic knee and shoulder pain; type: in vivo, human; details: 1 gram twice per day

SMILES | arm curls test: maximum number of bicep curl repetitions in 30 seconds [1] | effect on exercise capacity and recovery (summary) ([1]; person) | time to recovery (measured by muscle soreness and discomfort) ([1]; person) | time to exhaustion on the treadmill ([1]; person) | appearance of liquid that passed through the filter [2] | solubility in ethanol [3] | half-life [4] | solubility in Phosphate buffer ([5]; Phosphate buffer) | solubility in water ([5]; water) | appearance of filtrate ([6]; 1 g in 100 ml water) | solid left on the filter paper ([6]; 1 g in 100 ml water) | visible dissolution in water without stirring ([6]; 1 g in 100 ml water) | solubility in water with stirring ([6]; 1 g in 100 ml water, stirring 1200 rpm) | solubility in water (visual) [6] | onset of improvement in symptoms [7] | pain reduction during the next 30 days ([7]; 30 days) | soreness the day after training ([1]; person, day after training) | solubility at acidic pH (conclusion) ([2]; saturated citric acid solution) | time for all 1 gram to be dissolved in 100 ml of water ([6]; stirring at 1200 rpm with a magnetic stirrer)
COc1cc(/C=C/C(=O)CC(=O)/C=C/c2ccc(O)c(OC)c2)ccc1O [curcumin] | 11 repetitions | no effect | 2 days | 13 min | totally clear | 1000 µg/mL (≈ 2710 µM) | ~7 h | 0.310 µg/mL (≈ 0.842 µM) | 1.622 µg/mL (≈ 4.4 µM) | clear and lacked color | all of the curcumin powder was left on the filter paper | no visible sign of curcumin dissolving in water | no solubility even with stirring | low solubility |  |  |  |  | 
COc1cc(/C=C/C(=O)/C=C(O)/C=C/c2ccc(O)c(OC)c2)ccc1O.N.N [ammonium phenoxide of curcumin] | 14 repetitions | increased their exercise capacity and reduced the needed time for recovery | 1 days | 15.5 min | characteristic orange color of curcumin |  |  |  |  | the color of curcumin | no solid matter was left on the filter paper | visible at one minute |  | a lot more water-soluble | on the second day | continued showing improvement | noticeably lower | increased solubility | less than 10 seconds
